Test results reported in ChEMBL document CHEMBL1914458 (Eur J Med Chem, 2011).

Tests used:
[1] = Antioxidant activity assessed as trolox equivalent of AAPH-induced peroxyl radical scavenging activity at 0.5 to 10 uM after 10 mins by oxygen radical absorbance capacity-fluorescein assay; type: functional
Cholinesterase = Cholinesterase (Equus caballus, UniProt P81908)
Description: Inhibition of equine serum BuChE using butyrylthiocholine chloride as substrate preincubated for 15 mins by Ellman's method

Acetylcholinesterase = Acetylcholinesterase (Electrophorus electricus, UniProt O42275)
Description: Inhibition of electric eel AChE using acetylthiocholine chloride substrate as substrate preincubated for 15 mins by Ellman's method

[2] = Inhibition of self-mediated amyloid beta (1 to 42) aggregation at 10 uM after 48 hrs by thioflavin T fluorescence assay
[3] = Inhibition of self-mediated amyloid beta (1 to 42) aggregation at 20 uM after 48 hrs by thioflavin T fluorescence assay

Sequence of Cholinesterase (P81908 whole entry): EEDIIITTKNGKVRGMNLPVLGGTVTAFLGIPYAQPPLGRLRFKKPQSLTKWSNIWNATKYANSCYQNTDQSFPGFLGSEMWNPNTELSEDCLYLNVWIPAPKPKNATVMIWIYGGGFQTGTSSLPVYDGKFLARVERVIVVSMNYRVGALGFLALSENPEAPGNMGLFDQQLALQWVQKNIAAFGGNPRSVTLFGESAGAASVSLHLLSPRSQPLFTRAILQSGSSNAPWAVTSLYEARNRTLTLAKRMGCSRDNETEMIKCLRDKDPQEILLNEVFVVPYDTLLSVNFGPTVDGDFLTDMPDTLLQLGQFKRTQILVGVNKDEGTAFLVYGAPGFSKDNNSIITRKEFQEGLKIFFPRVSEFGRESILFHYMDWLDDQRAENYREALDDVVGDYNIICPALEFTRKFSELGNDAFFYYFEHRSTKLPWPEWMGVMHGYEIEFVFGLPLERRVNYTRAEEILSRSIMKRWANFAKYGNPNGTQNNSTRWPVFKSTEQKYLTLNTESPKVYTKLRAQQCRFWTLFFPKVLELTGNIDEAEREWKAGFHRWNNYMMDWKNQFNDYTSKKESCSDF
Sequence of Acetylcholinesterase (O42275 whole entry): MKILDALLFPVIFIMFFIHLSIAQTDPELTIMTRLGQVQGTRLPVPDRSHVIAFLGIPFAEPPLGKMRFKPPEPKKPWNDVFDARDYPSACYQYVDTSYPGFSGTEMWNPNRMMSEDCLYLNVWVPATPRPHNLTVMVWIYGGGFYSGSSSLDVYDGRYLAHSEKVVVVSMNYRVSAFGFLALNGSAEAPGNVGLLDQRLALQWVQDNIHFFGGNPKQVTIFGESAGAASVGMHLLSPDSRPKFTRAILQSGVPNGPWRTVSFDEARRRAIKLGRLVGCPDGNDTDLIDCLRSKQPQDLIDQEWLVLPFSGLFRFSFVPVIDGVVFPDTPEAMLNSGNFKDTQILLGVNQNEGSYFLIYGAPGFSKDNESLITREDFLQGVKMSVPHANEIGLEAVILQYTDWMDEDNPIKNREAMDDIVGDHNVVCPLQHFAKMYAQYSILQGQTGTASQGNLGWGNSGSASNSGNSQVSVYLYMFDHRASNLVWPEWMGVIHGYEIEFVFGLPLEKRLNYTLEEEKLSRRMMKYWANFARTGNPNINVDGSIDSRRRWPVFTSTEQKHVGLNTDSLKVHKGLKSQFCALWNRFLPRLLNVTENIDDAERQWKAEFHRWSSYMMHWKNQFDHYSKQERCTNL

Structure (SMILES)	Ratio [1]	IC50 (Cholinesterase) [nM]	IC50 (Acetylcholinesterase) [nM]	inhibition [2] [%]	inhibition [3] [%]
COc1ccc2cc3[n+](cc2c1NCCCOc1ccccc1)CCc1cc2c(cc1-3)OCO2	5.4	216	588	–	–
COc1ccc2cc3[n+](cc2c1NCC(C)C)CCc1cc2c(cc1-3)OCO2	5.12	2020	1140	–	–
COc1ccc2cc3[n+](cc2c1NCc1ccccc1)CCc1cc2c(cc1-3)OCO2	4.32	2280	936	–	–
COc1ccc2cc3[n+](cc2c1NCCc1ccc(C)cc1)CCc1cc2c(cc1-3)OCO2	4.56	821	449	80	94
COc1ccc2cc3[n+](cc2c1NCCCCOc1cccc2ccccc12)CCc1cc2c(cc1-3)OCO2	2.49	511	400	–	–
COc1ccc2cc3[n+](cc2c1NCCc1ccc(Cl)cc1Cl)CCc1cc2c(cc1-3)OCO2	3.36	424	130	81.3	93.6
COc1ccc2cc3[n+](cc2c1NCCCc1ccccc1)CCc1cc2c(cc1-3)OCO2	3.51	785	680	–	–
COc1ccc2cc3[n+](cc2c1NCCc1cccc(C)c1)CCc1cc2c(cc1-3)OCO2	4.73	674	91	79	93.6
COc1ccc(CCNc2c(OC)ccc3cc4[n+](cc23)CCc2cc3c(cc2-4)OCO3)cc1	4.68	2880	990	79	91.1
COc1ccc2cc3[n+](cc2c1NCCCCCOc1ccccc1)CCc1cc2c(cc1-3)OCO2	3.64	1560	1090	–	–
COc1ccc2cc3[n+](cc2c1NCCc1cccs1)CCc1cc2c(cc1-3)OCO2	4.18	555	608	72.8	87.8
COc1ccc2cc3[n+](cc2c1NCCc1ccc(F)cc1)CCc1cc2c(cc1-3)OCO2	4.48	445	238	76.3	90.4
COc1ccc2cc3[n+](cc2c1NCCc1ccccc1)CCc1cc2c(cc1-3)OCO2	4.8	406	209	79.2	92.2
COc1ccc2cc3[n+](cc2c1OC)CCc1cc2c(cc1-3)OCO2	–	–	–	8.9	36.3
COc1ccc(CCNc2c(OC)ccc3cc4[n+](cc23)CCc2cc3c(cc2-4)OCO3)cc1OC	5.3	5820	160	54.1	70.1
COc1cc(/C=C/C(=O)CC(=O)/C=C/c2ccc(O)c(OC)c2)ccc1O	–	–	–	30.7	–
COc1ccc2cc3[n+](cc2c1NCCCN(C)C)CCc1cc2c(cc1-3)OCO2	5.7	6320	576	–	–
COc1ccc2cc3[n+](cc2c1NCCc1ccccc1C)CCc1cc2c(cc1-3)OCO2	4.05	713	27	80	95
COc1ccc2cc3[n+](cc2c1NC(C)c1ccccc1)CCc1cc2c(cc1-3)OCO2 (stereo unspecified)	2.17	3280	1910	–	–
COc1ccc2[nH]cc(CCNc3c(OC)ccc4cc5[n+](cc34)CCc3cc4c(cc3-5)OCO4)c2c1	6.06	1390	1260	–	–
COc1ccc2cc3[n+](cc2c1NCCc1ccc([N+](=O)[O-])cc1)CCc1cc2c(cc1-3)OCO2	2.83	841	693	73.7	82.6
COc1ccc2cc3[n+](cc2c1NCCCCCCOc1ccccc1)CCc1cc2c(cc1-3)OCO2	2.8	1300	1420	–	–
COc1ccc2cc3[n+](cc2c1NCCCCOc1ccccc1)CCc1cc2c(cc1-3)OCO2	3.68	1200	349	–	–
COc1ccc2cc3[n+](cc2c1NCCOc1ccccc1)CCc1cc2c(cc1-3)OCO2	5.15	727	688	–	–
COc1ccc2cc3[n+](cc2c1OCCCCOc1ccccc1)CCc1cc2c(cc1-3)OCO2	1	–	–	–	–
COc1ccc2cc3[n+](cc2c1NCCCCOc1cccnc1)CCc1cc2c(cc1-3)OCO2	4.63	2940	1170	–	–
COc1ccc2cc3[n+](cc2c1NCCc1ccccn1)CCc1cc2c(cc1-3)OCO2	6.4	2500	1160	–	–
